From US20230340011A1 (Asteroid Therapeutics, priority 2022, published 2023)
Counter-ions that a name gives are not always drawn.

Key:
LXRβ = LXRβ (Homo sapiens (Human), UniProt P55055); assay: In vitro assay LXRβ: PathHunter NHR CHO cells, LXRβ / Steroid Receptor Co-activator Peptide enzyme fragment complementation; type: cell-based; conditions: PathHunter NHR CHO cells, full-length human LXRβ and SRCP, chemiluminescent signal; read-out: LXRβ PPI
Summary of the method: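 Enzyme fragment complementation read-out: CHO cells stably expressing ProLink-tagged full-length human LXRβ plus nuclear enzyme acceptor–SRCP fusion, seeded and held overnight at 37° C. Medium with charcoal-dextran filtered serum; final vehicle 1%. Chemiluminescence measured after signal generation.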

SREBP-2 = SREBP-2 (Homo sapiens (Human), UniProt Q12772); assay: In vitro assay SREBP-2: PathHunter U2OS SREBP-2 Nuclear Translocation Cell Line, U18666A-stimulated; type: cell-based; conditions: PathHunter U2OS SREBP-2 nuclear translocation cells, U18666A 10 μM, overnight (16 hours)

LXRβ, sequence (P55055 whole entry, the tested form may be a part): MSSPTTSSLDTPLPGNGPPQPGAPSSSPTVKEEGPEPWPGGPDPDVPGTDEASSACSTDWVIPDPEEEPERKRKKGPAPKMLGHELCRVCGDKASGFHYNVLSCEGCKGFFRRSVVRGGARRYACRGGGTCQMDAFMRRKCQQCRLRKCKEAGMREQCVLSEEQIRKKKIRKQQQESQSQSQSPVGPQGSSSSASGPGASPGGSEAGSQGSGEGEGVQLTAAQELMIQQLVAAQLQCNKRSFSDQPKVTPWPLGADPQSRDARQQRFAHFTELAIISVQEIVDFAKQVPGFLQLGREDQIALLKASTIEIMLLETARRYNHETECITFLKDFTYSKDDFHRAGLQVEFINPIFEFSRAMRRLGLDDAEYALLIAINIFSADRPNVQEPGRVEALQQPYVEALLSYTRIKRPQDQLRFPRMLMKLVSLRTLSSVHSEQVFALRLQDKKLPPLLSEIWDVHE

SMILES | EC50 (LXRβ) [µM] | IC50 (SREBP-2) [µM]
C[C@@H](NC(=O)C(=O)N(C)C)[C@H]1CC[C@H]2[C@@H]3CC=C4C[C@@H](O)CC[C@]4(C)[C@H]3CC[C@]12C (single isomer, unassigned) [Example 118] | > 10 | > 10
C[C@H](CCC(=O)N1CCC(C)(CO)C1)[C@H]1CC[C@H]2[C@@H]3CC=C4C[C@@H](O)CC[C@]4(C)[C@H]3CC[C@]12C (stereo in doubt) [Example 374, (4R)-4-[(1R,3aS,3bS,7S,9aR,9bS,11aR)-7-hydroxy-9a,11a-dimethyl-1H,2H,3H,3aH,3bH,4H,6H,7H,8H,9H,9aH,9bH,10H,11H,11aH-cyclopenta[a]phenanthren-1-yl]-1-[(3R)-3-(hydroxymethyl)-3-methylpyrrolidin-1-yl]pentan-1-one] | 0.25 to 1 | < 0.25
C[C@H](CCC(=O)N1CCC(C)(C)CC1)[C@H]1CC[C@H]2[C@@H]3CC=C4C[C@@H](O)CC[C@]4(C)[C@H]3CC[C@]12C [Example 5, (R)-1-(4,4-dimethylpiperidin-1-yl)-4-((3S,8S,9S,10R,13R,14S,17R)-3-hydroxy-10,13-dimethyl-2,3,4,7,8,9,10,11,12,13,14,15,16,17-tetradecahydro-1H-cyclopenta[a]phenanthren-17-yl)pentan-1-one] | 1 to 10 | < 0.25
CCCN(OC)C(=O)CC[C@@H](C)[C@H]1CC[C@H]2[C@@H]3CC=C4C[C@@H](O)CC[C@]4(C)[C@H]3CC[C@]12C [Example 13, (R)-4-((3S,8S,9S,10R,13R,14S,17R)-3-hydroxy-10,13-dimethyl-2,3,4,7,8,9,10,11,12,13,14,15,16,17-tetradecahydro-1H-cyclopenta[a]phenanthren-17-yl)-N-methoxy-N-propylpentanamide] | 0.25 to 1 | < 0.25
CC(C)ON(C)C(=O)CC[C@@H](C)[C@H]1CC[C@H]2[C@@H]3CC=C4C[C@@H](O)CC[C@]4(C)[C@H]3CC[C@]12C [Example 14, (R)-4-((3S,8S,9S,10R,13R,14S,17R)-3-hydroxy-10,13-dimethyl-2,3,4,7,8,9,10,11,12,13,14,15,16,17-tetradecahydro-1H-cyclopenta[a]phenanthren-17-yl)-N-isopropoxy-N-methylpentanamide] | 0.25 to 1 | 0.25 to 1
C[C@H](CCC(=O)N(C)OCCN)[C@H]1CC[C@H]2[C@@H]3CC=C4C[C@@H](O)CC[C@]4(C)[C@H]3CC[C@]12C [Example 28, (R)—N-(2-aminoethoxy)-4-((3S,8S,9S,10R,13R,14S,17R)-3-hydroxy-10,13-dimethyl-2,3,4,7,8,9,10,11,12,13,14,15,16,17-tetradecahydro-1H-cyclopenta[a]phenanthren-17-yl)-N-methylpentanamide hydrochloride] | > 10 | 0.25 to 1
C[C@H](CCC(=O)N(C)OCCC(F)(F)F)[C@H]1CC[C@H]2[C@@H]3CC=C4C[C@@H](O)CC[C@]4(C)[C@H]3CC[C@]12C [Example 29, (R)-4-((3S,8S,9S,10R,13R,14S,17R)-3-hydroxy-10,13-dimethyl-2,3,4,7,8,9,10,11,12,13,14,15,16,17-tetradecahydro-1H-cyclopenta[a]phenanthren-17-yl)-N-methyl-N-(3,3,3-trifluoropropoxy)pentanamide] | > 10 | < 0.25
C=CCN1C[C@H]2CON(C(=O)CC[C@@H](C)[C@H]3CC[C@H]4[C@@H]5CC=C6C[C@@H](O)CC[C@]6(C)[C@H]5CC[C@]34C)[C@H]2C1 [Example 44, (R)-1-((3aR,6aR)-5-allylhexahydro-1H-pyrrolo[3,4-c]isoxazol-1-yl)-4-((3S,8S,9S,10R,13R,14S,17R)-3-hydroxy-10,13-dimethyl-2,3,4,7,8,9,10,11,12,13,14,15,16,17-tetradecahydro-1H-cyclopenta[a]phenanthren-17-yl)pentan-1-one] | > 10 | 0.25 to 1
C[C@H](CCC(=O)N1CCN(c2cccnc2)CC1)[C@H]1CC[C@H]2[C@@H]3CC=C4C[C@@H](O)CC[C@]4(C)[C@H]3CC[C@]12C [Example 306, (4R)-4-[(1R,3aS,3bS,7S,9aR,9bS,11aR)-7-hydroxy-9a,11a-dimethyl-1H,2H,3H,3aH,3bH,4H,6H,7H,8H,9H,9aH,9bH,10H,11H,11aH-cyclopenta[a]phenanthren-1-yl]-1-[4-(pyridin-3-yl)piperazin-1-yl]pentan-1-one] | > 10 | 
C[C@H](CCC(=O)N1CCN(c2ccccn2)CC1)[C@H]1CC[C@H]2[C@@H]3CC=C4C[C@@H](O)CC[C@]4(C)[C@H]3CC[C@]12C [Example 307, (R)-4-((3S,8S,9S,10R,13R,14S,17R)-3-hydroxy-10,13-dimethyl-2,3,4,7,8,9,10,11,12,13,14,15,16,17-tetradecahydro-1H-cyclopenta[a]phenanthren-17-yl)-1-(4-(pyridin-2-yl)piperazin-1-yl)pentan-1-one] | > 10 | 
C[C@H](CCC(=O)N1CCN(C(=O)c2ccnnc2)CC1)[C@H]1CC[C@H]2[C@@H]3CC=C4C[C@@H](O)CC[C@]4(C)[C@H]3CC[C@]12C [Example 312, (R)-4-((3S,8S,9S,10R,13R,14S,17R)-3-hydroxy-10,13-dimethyl-2,3,4,7,8,9,10,11,12,13,14,15,16,17-tetradecahydro-1H-cyclopenta[a]phenanthren-17-yl)-1-(4-(pyridazine-4-carbonyl)piperazin-1-yl) pentan-1-one] | > 10 | 
C[C@H](CCC(=O)N1CCN(C(=O)C2CC2)CC1)[C@H]1CC[C@H]2[C@@H]3CC=C4C[C@@H](O)CC[C@]4(C)[C@H]3CC[C@]12C [Example 314, (4R)-4-[(1R,3aS,3bS,7S,9aR,9bS,11aR)-7-hydroxy-9a,11a-dimethyl-1H,2H,3H,3aH,3bH,4H,6H,7H,8H,9H,9aH,9bH,10H,11H,11aH-cyclopenta[a]phenanthren-1-yl]-1-(4-cyclopropanecarbonylpiperazin-1-yl)pentan-1-one] | > 10 | 
CC(C)C(=O)N1CCN(C(=O)CC[C@@H](C)[C@H]2CC[C@H]3[C@@H]4CC=C5C[C@@H](O)CC[C@]5(C)[C@H]4CC[C@]23C)CC1 [Example 315, (R)-4-((3S,8S,9S,10R,13R,14S,17R)-3-hydroxy-10,13-dimethyl-2,3,4,7,8,9,10,11,12,13,14,15,16,17-tetradecahydro-1H-cyclopenta[a]phenanthren-17-yl)-1-(4-isobutyrylpiperazin-1-yl)pentan-1-one] | > 10 | 
CC(=O)N1CCC(N(C)C(=O)CC[C@@H](C)[C@H]2CC[C@H]3[C@@H]4CC=C5C[C@@H](O)CC[C@]5(C)[C@H]4CC[C@]23C)CC1 [Example 407, (4R)-4-[(1R,3aS,3bS,7S,9aR,9bS,11aR)-7-hydroxy-9a,11a-dimethyl-1H,2H,3H,3aH,3bH,4H,6H,7H,8H,9H,9aH,9bH,10H,11H,11aH-cyclopenta[a]phenanthren-1-yl]-N-(1-acetylpiperidin-4-yl)-N-methylpentanamide] | > 10 | 
CC(=O)N1CCN(C(=O)CC[C@@H](C)[C@H]2CC[C@H]3[C@@H]4CC=C5C[C@@H](O)CC[C@]5(C)[C@H]4CC[C@]23C)C[C@@H]1C [Example 427, (R)-1-((S)-4-acetyl-3-methylpiperazin-1-yl)-4-((3S,8S,9S,10R,13R,14S,17R)-3-hydroxy-10,13-dimethyl-2,3,4,7,8,9,10,11,12,13,14,15,16,17-tetradecahydro-1H-cyclopenta[a]phenanthren-17-yl)pentan-1-one] | > 10 | 
CC(=O)N1CCN(C(=O)CC[C@@H](C)[C@H]2CC[C@H]3[C@@H]4CC=C5C[C@@H](O)CC[C@]5(C)[C@H]4CC[C@]23C)[C@@H](C)C1 [Example 428, (4R)-4-[(1R,3aS,3bS,7S,9aR,9bS,11aR)-7-hydroxy-9a,11a-dimethyl-1H,2H,3H,3aH,3bH,4H,6H,7H,8H,9H,9aH,9bH,10H,11H,11aH-cyclopenta[a]phenanthren-1-yl]-1-[(2S)-4-acetyl-2-methylpiperazin-1-yl]pentan-1-one] | > 10 | 
COCCNC(=O)OC[C@@H](C)[C@H]1CC[C@H]2[C@@H]3CC=C4C[C@@H](O)CC[C@]4(C)[C@H]3CC[C@]12C [Example 460, (2S)-2-[(1R,3aS,3bS,7S,9aR,9bS,11aS)-7-hydroxy-9a,11a-dimethyl-1H,2H,3H,3aH,3bH,4H,6H,7H,8H,9H,9aH,9bH,10H,11H,11aH-cyclopenta[a]phenanthren-1-yl]propyl N-(2-methoxyethyl)carbamate] | > 10 | 
CC(NS(C)(=O)=O)C1CCN(C(=O)CC[C@@H](C)[C@H]2CC[C@H]3[C@@H]4CC=C5C[C@@H](O)CC[C@]5(C)[C@H]4CC[C@]23C)CC1 (stereo partly drawn) [Example 475, N-(1-(1-((R)-4-((3S,8S,9S,10R,13R,14S,17R)-3-hydroxy-10,13-dimethyl-2,3,4,7,8,9,10,11,12,13,14,15,16,17-tetradecahydro-1H-cyclopenta[a]phenanthren-17-yl)pentanoyl)piperidin-4-yl)ethyl)methanesulfonamide] | > 10 | 
CNc1nccc(N2CCN(C(=O)CC[C@@H](C)[C@H]3CC[C@H]4[C@@H]5CC=C6C[C@@H](O)CC[C@]6(C)[C@H]5CC[C@]34C)CC2)n1 [Example 561, (R)-4-((3S,8S,9S,10R,13R,14S,17R)-3-hydroxy-10,13-dimethyl-2,3,4,7,8,9,10,11,12,13,14,15,16,17-tetradecahydro-1H-cyclopenta[a]phenanthren-17-yl)-1-(4-(2-(methylamino)pyrimidin-4-yl)piperazin-1-yl)pentan-1-one] | > 10 | 
